From US20230035892A1, “METHODS AND COMPOSITIONS FOR TREATING CANCER” (Flagship Pioneering Innovations V, Inc., priority 2019, published 2023)
Read-outs that look alike come from different tables or passages of the source.

Legend:
Assay type in all cases: cell-based
[1] = test system: PAXF1657 control empty vector; assay: 7-day CellTiter-Glo anti-proliferative assay; conditions: for Emax: 168 h, read-out: Maximum % Growth inhibition relative to DMSO, geometric mean; for GI50: read-out: GI50, geometric mean
Procedure: (§1) Cell lines were seeded into tissue culture treated, white-walled, 96-well plates at a density of 500 cells/well in RPM11640 media supplemented with 10% H.I. FBS and penicillin/streptomycin. Plates were incubated overnight at 37° C., 5% CO2 to allow cells to adhere to the wells. GRK2 small molecule antagonists were added to the cells using a ten-point or five-point dilution series with a final concentration ranging from […] in 0.1% DMSO. At the time of compound addition, a set of plates that were not treated with compounds were collected and cell viability was measured using CellTiter-Glo (Promega). CellTiter-Glo reagent was added to the plates and luminescence was measured using a Biotek Synergy plate reader. The compound treated cells were incubated for 3 days at 37° C., 5% CO2. The media was then aspirated from each well and replaced with fresh media containing GRK2 small molecule antagonists. The compound treated cells were then incubated for another 4 days at 37° C., 5% CO2 and cell viability was assessed at the end of the 7-day compound treatment by CellTiterGlo.

[2] = test system: PAXF1657 stably overexpressing GRK2 cDNA; assay: 7-day CellTiter-Glo anti-proliferative assay; conditions: PAXF1657, sgNTC, pReceiver-GRK2, 5 or 10 point dose curve; for Emax: 168 h, read-out: Maximum % Growth inhibition relative to DMSO, geometric mean; for GI50: read-out: GI50, geometric mean
Procedure: as §1

[3] = test system: PAXF1657 stable clone of GRK2 knockout; assay: 7-day CellTiter-Glo anti-proliferative assay; conditions: PAXF1657, sgGRK2 #2 clonal KO, no cDNA, 10 point dose curve; for GI50: read-out: GI50, geometric mean
Procedure: as §1

Grk2 protein [4] = assay: Western Blot of Grk2 levels after doxycycline-induced sgRNA expression; conditions: PAXF1657, day 7, +dox
Procedure: To validate the findings from the CRISPR screen, Cas9-expressing pancreatic cell lines were generated that express doxycycline inducible sgRNAs targeting GRK2. Treatment of these cells with 100 ng/ml doxycycline for 3, 7 or 10 days induced a time-dependent depletion of Grk2 protein, confirming the on-target efficacy of the sgRNAs.

PAXF1657 = assay: RFP/GFP competition assay, doxycycline-induced GRK2 knockout
Procedure: (§2) Next, experiments were performed to evaluate whether GRK2 knockout induced by doxycycline treatment results in a proliferation defect in pancreatic cancer cells. Pancreatic cancer cell lines expressing GRK2 sgRNAs as well as RFP were plated in a ratio of 1:1 with GFP expressing pancreatic cancer cells. Co-plated cells were cultured in the presence or absence of 100 ng/ml doxycycline over the course of 21 days, and the percentage of GFP and RFP-expressing cells was measured over time.

Grk2 protein [5] = assay: Western Blot of Grk2 levels in PAXF1657 lines re-expressing cleavage-resistant Grk2 wild-type or kinase-dead cDNA; conditions: PAXF1657 expressing the sgRNA, cDNA Empty vector; for GRK2/GAPDH / GRK2 Adj. Vol. (Int): +dox
From the text: (§3) To test whether the Grk2 sgRNAs act through targeting Grk2, and to test whether the anti-proliferative effect results from loss of the Grk2 kinase activity, Grk2 sgRNA expressing PAXF1657 cell lines overexpressing Cas9/sgRNA-cleavage-resistant Grk2 wild-type or kinase-dead cDNA constructs were generated. Re-expression of Cas9/sgRNA-cleavage-resistant Grk2 wild-type or kinase-dead cDNA constructs led to increased Grk2 protein levels, as measured by Western Blot analysis and shown in Table 18.

PAXF1657 cells = assay: Growth (RFP/GFP ratio) of sgGrk2 PAXF1657 lines re-expressing Grk2 wild-type or kinase-dead cDNA; conditions: for sgRNA-induced growth inhibition on re-expression of Grk2 wild-type cDNA: cleavage-resistant Grk2 wild-type cDNA
Procedure: as §2, §3

[6] = test system: sgGrk2-expressing PAXF1657 cells; assay: Colony formation assay in sgGrk2-expressing cells (target specificity); conditions: PAXF1657, DMSO treatment; for Rel +dox: sgRNA induced (+dox)
Procedure: To assess the target specificity of the GRK2 small molecule antagonist of Formula III-26, sgGRK2-expressing cells were treated with the compound of Formula III-26. If GRK2 knockout is complete and the compound of Formula III-26 inhibits only GRK2, the addition of the compound of Formula III-26 should not induce any additional growth defect compared to sgRNA KO alone. […] This is potentially due to the lower GRK2 knockout efficiency that can be achieved in PAXF1657 compared to Miapaca2, as shown in Table 16.

[7] = PAXF1657, sgNTC, pReceiver-empty vector, 5 or 10 point dose curve
[8] = PAXF1657, day 3, 100 ng/ml doxycycline
[9] = PAXF1657, day 7, 100 ng/ml doxycycline
[10] = PAXF1657, day 10, 100 ng/ml doxycycline
[11] = PAXF1657, day 14, 100 ng/ml doxycycline
[12] = PAXF1657, day 17, 100 ng/ml doxycycline
[13] = PAXF1657, day 21, 100 ng/ml doxycycline

Compound | Emax [1, 7] [%] | Emax [2] [%] | GI50 [2] [µM] | GI50 [1, 7] [µM] | also measured
O=C(NCc1cc[nH]n1)c1cc([C@@H]2CCNC[C@H]2COc2ccc3c(c2)OCO3)ccc1F [Compound of Formula II-26] | 43.3 | 25.5 | > 10 | – | GI50 [1]: 1.49 µM
Fc1ccc([C@@H]2CCNC[C@H]2COc2ccc3[nH]ncc3c2)cc1CNCc1ccn[nH]1 [Compound of Formula II-33] | 42.7 | 0 | > 10 | 6.27 | –
O=C(NCc1[nH]nc2ccccc12)c1cc([C@@H]2CCNC[C@H]2COc2ccc3c(c2)OCO3)ccc1F [Compound of Formula II-35] | – | – | – | 3.37 | –
COc1ccccc1CNC(=O)c1cccc(NCc2nnc(-c3ccncc3)[nH]2)c1 [Compound of Formula III-28] | 76.8 | 64.7 | 14.7 | 0.653 | Maximum % Growth inhibition relative to DMSO, geometric mean [3]: 78.8%; GI50 [3]: 17.9 µM
O=C(NCc1ccccc1)c1cccc(NCc2nnc(-c3ccncc3)[nH]2)c1 [Compound of Formula III-30] | 73.1 | 65.5 | 3.4 | 4.91 | Maximum % Growth inhibition relative to DMSO, geometric mean [3]: 63.5%; GI50 [3]: > 30 µM
Cn1c(CNc2cccc(C(=O)NCc3c(F)cccc3F)c2)nnc1-c1ccncn1 [Compound of Formula III-31] | 31.6 | 29.8 | > 10 | > 10 | –
CCCn1c(CNc2cccc(C(=O)NCc3ccccc3C(F)(F)F)c2)nnc1-c1ccncn1 [Compound of Formula III-35] | 83.6 | 81.4 | 0.614 | 0.68 | –
O=C(NCc1ccccc1C(F)(F)F)c1cccc(NCc2nnc(-c3ccncc3)n2CCO)c1 [Compound of Formula III-54] | 89 | 87.3 | 2.71 | 2.52 | –
O=C(NCc1ccccc1C(F)(F)F)c1cccc(NCc2nnc3n2CCOc2cnccc2-3)c1 [Compound of Formula III-55] | 82.3 | 85.9 | 0.17 | 0.11 | –
O=C(NCc1c(F)cccc1F)c1cccc(NCc2nnc3n2CCOc2cnccc2-3)c1 [Compound of Formula III-56] | 46.5 | 28.3 | > 10 | > 10 | –
sgGrk2-2: "sgGrk2-2 (SEQ ID NO: 3)"; "doxycycline inducible sgRNAs targeting GRK2" (guide GGTCCCGGTAGACCACGAAG; expressed or natural sequence) | – | – | – | – | GRK2/GAPDH normalized to −dox (Grk2 protein [4]): 0.20; GRK2/GAPDH ratio (Grk2 protein [4]): 0.06; GRK2 Avg. Intensity (Grk2 protein [4]): 2,133,921.03; RFP/GFP ratio +dox normalized to RFP/GFP ratio −dox (PAXF1657; [8]): 1.00; RFP/GFP ratio +dox normalized to RFP/GFP ratio −dox (PAXF1657; [9]): 0.89; RFP/GFP ratio +dox normalized to RFP/GFP ratio −dox (PAXF1657; [10]): 0.76; RFP/GFP ratio +dox normalized to RFP/GFP ratio −dox (PAXF1657; [11]): 0.69; RFP/GFP ratio +dox normalized to RFP/GFP ratio −dox (PAXF1657; [12]): 0.57; RFP/GFP ratio +dox normalized to RFP/GFP ratio −dox (PAXF1657; [13]): 0.44; GRK2/GAPDH normalized to −dox (Grk2 protein [5]): −0.24; GRK2/GAPDH (Grk2 protein [5]): −0.01; GRK2 Adj. Vol. (Int) (Grk2 protein [5]): −189,385.63; sgRNA-induced growth inhibition on re-expression of Grk2 kinase-dead cDNA (PAXF1657 cells; cleavage-resistant Grk2 kinase-dead cDNA): did not; sgRNA-induced growth inhibition on re-expression of Grk2 wild-type cDNA (PAXF1657 cells): reduced the sgRNA-induced growth inhibition; Difference between rel +dox and −dox signal [6]: 0.21; Rel +dox [6]: 0.79
sgGrk2-3: "sgGrk2-3 (SEQ ID NO: 4)"; "doxycycline inducible sgRNAs targeting GRK2" (guide GCACCCCAGAGAGAACCAGT; expressed or natural sequence) | – | – | – | – | GRK2/GAPDH normalized to −dox (Grk2 protein [4]): 0.28; GRK2/GAPDH ratio (Grk2 protein [4]): 0.16; GRK2 Avg. Intensity (Grk2 protein [4]): 2,026,964.66; RFP/GFP ratio +dox normalized to RFP/GFP ratio −dox (PAXF1657; [8]): 0.92; RFP/GFP ratio +dox normalized to RFP/GFP ratio −dox (PAXF1657; [9]): 0.83; RFP/GFP ratio +dox normalized to RFP/GFP ratio −dox (PAXF1657; [10]): 0.64; RFP/GFP ratio +dox normalized to RFP/GFP ratio −dox (PAXF1657; [11]): 0.44; RFP/GFP ratio +dox normalized to RFP/GFP ratio −dox (PAXF1657; [12]): 0.27; RFP/GFP ratio +dox normalized to RFP/GFP ratio −dox (PAXF1657; [13]): 0.24; GRK2/GAPDH normalized to −dox (Grk2 protein [5]): −2.47; GRK2/GAPDH (Grk2 protein [5]): −0.04; GRK2 Adj. Vol. (Int) (Grk2 protein [5]): −514,147.69; sgRNA-induced growth inhibition on re-expression of Grk2 wild-type cDNA (PAXF1657 cells): less efficient; Difference between rel +dox and −dox signal [6]: 0.36; Rel +dox [6]: 0.64
